Patent publication US4734280A, “Treatment or prevention of PAF Acether-induced maladies” (priority 1984, dated 1988)
Where two headings read alike, the source gives them in different places.

What was measured:
[1] = molecular target: T1, PAF-Acether receptor (Oryctolagus cuniculus, UniProt G1TEI7); assay: Competition with 3H-PAF Acether binding, rabbit membrane platelet preparation
T1 construct: using a rabbit membrane platelet preparation; from tissue; host or cells: rabbit platelets (membrane preparation)
Description: The competition of the alternative binding of either ^3 H-PAF Acether or one of the Ginkgolides was evidenced by radioactive determinations using a rabbit membrane platelet preparation. (100% control=^3 H-PAF Acether alone).

[2] = tested on: rabbit plasma-rich platelets (PRP); assay: Inhibition of PAF Acether-induced PA, rabbit PRP in vitro; assay type: cell-based; details: Oryctolagus cuniculus, Platelet, average of 10 assays, read-out: IC50 doses on PAF Acether-induced rabbit PA (PRP)
Experimental: The Inhibition of PAF Acether-induced PA has been studied on rabbit plasma-rich platelets (PRP). Two doses of PAF Acether were used (2.5 nM and 5 nM). The tested compound was added to the medium 3 minutes before PAF Acether and aggregation was followed by monitoring changes in electrical impedance (Whole-Blood aggregometer-chrono-Log); kadsurenone was simultaneously tested as reference compound and the IC50 molar doses of Ginkgolides A, B, C and M and of kadsurenone on PAF Acether-induced rabbit PA (PRP) have been calculated.
The results obtained are presented in the following table (average values for 10 assays for each dose) and FIG. 1: […]

[3] = tested on: rabbit plasma-rich platelets (PRP); assay: Aggregation induced by other known aggregants (ADP, thrombine, calcium ionophore A 23187, collagen, adrenaline); assay type: cell-based; details: calcium ionophore A 23187, collagen and adrenaline
[4] = tested on: human washed platelets; assay: Inhibition of PAF Acether-induced PA, human washed platelets; assay type: cell-based; details: Platelet, average values of 5 assays
Description: The inhibition of PAF Acether-induced PA was also experimented using human washed platelets on Ginkgolides A, B, and C.
Best figure for IC50 was obtained with Ginkgolide B (GK B) (average values of 5 assays) with 2.5 10^-5 M.

[5] = tested on: Sprague-Dowley rats; assay: Cutaneous vascular hyperpermeability induced by PAF Acether in the rat; assay type: in vivo; details: 1 mg/kg IV
Experimental: Method: Intradermal injection of 25 ng of PAF Acether in the dorsal region of the rat with simultaneous IV injection of Evans blue dye (60 mg/kg/5 ml) induces vascular hyperpermeability and wheals formation. (for details see Basran GS, Page CP, Paul W and Morley J-Cromoglycate inhibits responses to platelet-activating factor (PAF Acether) in man: an alternative mode of action for DSCG in asthma-Eur. J. Pharma. (1983) 86 143-144).
These wheals were measured (surface in mm^2) at the inner side of the skin 30 mn after the injections and were taken off, put in 4 ml of formamide, incubated at 65° C. during 24 h in order to extract the dye and measure their coloration (optical density at 620 nm).
Groups of 6 Sprague-Dowley rats weighing 200 g were used and each rat received intradermal injections in two sites of the back. The experiment was performed in comparison with a reference compound, D 600 (methoxy verapamil), a calcium-blocker agent.
Treatments: Tested compounds were administered by IV route injected once simultaneously with the dye.

[6] = tested on: New-Zealand rabbits; assay: PAF Acether-induced shock in the rabbit; assay type: in vivo; details: for Extravasation (O.D.): 2 mg/kg IV perfusion, 30 mn, optical density at 590 nm, average of 10 animals
Experimental: Treatment: Tested compounds (Gingkolides A, B and C) or vehicle were perfused in the ear vein in 45 ml NaCl 0.9% for 1 hour before PAF Acether injection. Vehicle consisted of 1.5 ml of propylene glycol completed to 45 ml by isotonic NaCl buffer; Ginkgolides were administered at the dose of 2 mg/kg IV; the figures reported in the following table are the average values of the 10 animals of each batch.

[7] = tested on: Hartley guinea-pig; assay: PAF Acether-induced bronchoconstriction in the anesthetized guinea-pig; assay type: in vivo; details: 1 mg/kg IV
Experimental: Method: (For details, see B. B. VARGAFTIG, J. LEFORT, F. WAL, M. CHIGNARD and M. C. MEDEIROS-Non-steroidal anti-inflammatory drugs of combined with anti-histamine and anti-serotonin agents interfere with the bronchial and platelet effects of PAF Acether-Enr. J. Pharm. (1982) 82 121-130). Male Hartley guinea-pig (400-500 g) were anesthetized with urethane 2 g/kg Ip., tracheotomised and ventilated by mean of a respiratory pump: 70-80 strokes mn, stroke volume 5 ml, a pneumothorax was done to abolish spontaneous respiration. The right jugular vein was catherized and used for injections.
The initial resistance was kept constant at 10 cm H2 O pressure according to the method of Konzett and Rossler and the overflowed airway was measured with a bronchospasm transducer UGO BASILE connected to a UGO BASILE recorder "GEMINI". Bronchial sensitivity of the animal was checked with acetylcholine (10-40 ng kg^-1 IV) and after constant response was obtained, there were injected, IV, first the propylene glycol and, five minutes later, 60 ng/kg of PAF Acether, which gave the control bronchoconstriction expressed as % of maximal bronchoconstriction given by clamping off the trachea. 40 minutes later, the tested compounds were administered by IV injection and, 5 minutes later, 60 ng/kg of PAF Acether by the same route. This experimentation was conducted on three batches of each 10 animals: first batch for Ginkgolide A, second one for Ginkgolide B and last one for Ginkgolide C, all at the 1 mg/kg dose. The figures of the following table are the average values for the 10 animals of each batch.

[8] = tested on: thermal-injured patients; assay: Preliminary clinical trial in thermal-injured patients (open study); assay type: in vivo, human; details: perfusion 5 mg per hour for six hours then 2 mg per hour for 48 hours; 13 patients, burnt surface area >50%
Experimental: An open study has been performed on 13 thermal-injured patients (total burnt surface area >50%) treated by Ginkgolide B.
The Ginkgolide B was administered in a perfusion (5 mg per hour for six hours and then 2 mg per hour for the following 48 hours).

[9] = 2 mg/kg IV, PAF Acether 2 and 4 nmol/kg, 10 animals per batch

T1 sequence (G1TEI7 1-342): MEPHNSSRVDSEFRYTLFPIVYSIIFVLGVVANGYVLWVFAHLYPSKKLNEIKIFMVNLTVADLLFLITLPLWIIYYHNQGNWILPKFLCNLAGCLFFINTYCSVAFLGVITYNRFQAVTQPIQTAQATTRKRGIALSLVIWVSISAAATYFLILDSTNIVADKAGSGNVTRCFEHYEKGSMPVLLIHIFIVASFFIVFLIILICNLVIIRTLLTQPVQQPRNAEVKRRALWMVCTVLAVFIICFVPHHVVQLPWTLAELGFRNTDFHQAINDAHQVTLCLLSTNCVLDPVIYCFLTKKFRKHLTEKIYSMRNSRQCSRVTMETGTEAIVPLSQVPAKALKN

CC1C(=O)OC2C(O)C34C5CC(C(C)(C)C)C36C(OC(=O)C6O)OC4(C(=O)O5)C12O (centres unmarked) [Ginkgolide B]
IC50 ([1]; rabbit membrane platelet preparation): 0.575 µM | inhibition at 1 µM ([1]; read-out: reduction of 3H-PAF Acether binding): 94% | IC50 ([2]; PAF Acether 2.5 nM): 1.88 µM | IC50 ([2]; PAF Acether 5 nM): 3.2 µM | effect against aggregation induced by other known aggregants [3]: totally ineffective | IC50 [4]: 25 µM | PAF Acether induced wheal, Surface ([5]; PAF Acether 25 ng intradermal, 30 mn, p < 0.001): 58.5 mm^2 | PAF Acether induced wheal, Coloration OD ([5]; optical density at 620 nm, p < 0.001): 0.628 OD | PAF Acether induced wheal, Coloration % decrease ([5]; vs control): -45% | PAF Acether induced wheal, Surface % decrease ([5]; vs control): -43% | Extravasation (O.D.) ([6]; PAF Acether 2 nmol/kg): 0.827 O.D. | Extravasation (O.D.) ([6]; PAF Acether 4 nmol/kg): 0.880 O.D. | Behaviour: behavioural modifications [6, 9]: No behavioural | Behaviour: deaths [6, 9]: No death | % of bronchoconstriction ([7]; 5 minutes before PAF Acether 60 ng/kg IV, % of maximal bronchoconstriction, average of 10 animals): 6.2% | % of inhibition (bronchoconstriction) ([7]; vs solvent in the same batch): 92.3% | clinical outcome in thermal-injured patients [8]: faster recovery (decreased oedema, decreased plasma leakage and improvement of clinical outcome)
